Values quoted from earlier work in patent publication US20130344150A1, “DIRECT COMPRESSION TABLETS OF OTILONIUM” (Abdi Ibrahim IIac Sanayi Ve Ticaret Anonim Sirketi, priority 2009, published 2013).

How the values were obtained:
[1] = clinical studies
[2] = system: gastrointestinal-motility; conditions: baseline and chemically or physically stimulated

SMILES: CCCCCCCCOc1ccccc1C(=O)Nc1ccc(C(=O)OCC[N+](C)(CC)CC)cc1 [otilonium bromide]
- tolerability [1]: good tolerability profile
- effect on gastrointestinal-motility [2]: inhibits both baseline and chemically or physically stimulated gastrointestinal-motility
